Experimental data taken from patent US20220324835A1 (Nurix Therapeutics, Inc., priority 2018, published 2022).

Assays:
[1] = target: T1, Cbl-b (Homo sapiens, UniProt Q13191); experiment: Cbl-b inhibition assay (Cbl-b activity assay, FRET, Biological Example 1; 100 mM NaCl, 60 nM Src kinase); assay type: biochemical; conditions: upper bound stated in text lists; read-out: IC50 values in the Cbl-b inhibition assay of Biological Example 1
Excerpt: FIG. 1A and FIG. 1B show a series of diagrams depicting the activity assay utilized to assay inhibition of Cbl-b activity by a Cbl-b inhibitor. FIG. 1A: The activity assay mixture comprises an N-terminal biotinylated Avi-tagged Cbl-b, an E2 enzyme (i.e., UbcH5B) irreversibly conjugated to Bodipy-Fluorescein tagged ubiquitin (i.e., UbcH5B-Ub), a Src kinase, streptavidin-terbium, and assay buffer. Phosphorylation of Cbl-b by the Src kinase allows UbcH5B-Ub to bind to Cbl-b and bring the Bodipy-Fluorescein tagged ubiquitin in proximity to the streptavidin-terbium bound to the N-terminal biotinylated Avi-tagged Cbl-b. […] FIG. 1B: In the presence of a Cbl-b inhibitor, such as one described herein, Cbl-b is unable to bind UbcH5B-Ub. The lack of a FRET signal indicates Cbl-b is inhibited by the Cbl-b inhibitor. Ub indicates ubiquitin; N-Avi indicates biotinylated Avi-tag at the N-terminus of Cbl-b; inhibitor indicates Cbl-b inhibitor.
The lack of a FRET signal indicates Cbl-b is inhibited by the Cbl-b inhibitor. In FIG. 1A and FIG. 1B, Ub indicates ubiquitin; N-Avi indicates biotinylated Avi-tag at the N-terminus of Cbl-b; and inhibitor indicates Cbl-b inhibitor.

[2] = target: T1, Cbl-b; experiment: Cbl-b activity assay (Cbl-b inhibition assay), TR-FRET of Cbl-b interaction with UbcH5B-Ub; assay type: biochemical; conditions: assay buffer with 100 mM NaCl, 60 nM Src kinase; read-out: Cbl-b activity IC50
Experimental: The ability of candidate compounds to inhibit Cbl-b activity was measured by monitoring the interaction of Cbl-b with UbcH5B-Ub in the presence of the candidate compound.
Fluorescently labeled UbcH5B-Ub was prepared by conjugating ubiquitin (Ub), labeled at its N-terminus with Bodipy-Fluorescein, to UbcH5B, an E2 enzyme, harboring a cysteine to lysine mutation at position 85. […] After incubation in the presence of the candidate compound, the plate was incubated for an additional 1.5 hours in the presence of 60 nM Src kinase with 1 mM ATP and 5 mM MgCl2 (final concentrations). […] The plate was incubated for 1 hour.
Column marked with an asterisk (*) were tested as described above with assay buffer containing 50 mM NaCl instead of 100 mM NaCl and 30 nM Src kinase instead of 60 nM Src kinase. The resulting data for the Cbl-b binding assay was solvent corrected and double referenced prior to analysis. All data were globally fit to a steady-state affinity and kinetic binding model where applicable). Fit parameters were derived from a 1:1 binding model using the Biacore T200 Evaluation Software V2.0 (GE Healthcare) (Table 2).

T1 sequence (Q13191 36-427): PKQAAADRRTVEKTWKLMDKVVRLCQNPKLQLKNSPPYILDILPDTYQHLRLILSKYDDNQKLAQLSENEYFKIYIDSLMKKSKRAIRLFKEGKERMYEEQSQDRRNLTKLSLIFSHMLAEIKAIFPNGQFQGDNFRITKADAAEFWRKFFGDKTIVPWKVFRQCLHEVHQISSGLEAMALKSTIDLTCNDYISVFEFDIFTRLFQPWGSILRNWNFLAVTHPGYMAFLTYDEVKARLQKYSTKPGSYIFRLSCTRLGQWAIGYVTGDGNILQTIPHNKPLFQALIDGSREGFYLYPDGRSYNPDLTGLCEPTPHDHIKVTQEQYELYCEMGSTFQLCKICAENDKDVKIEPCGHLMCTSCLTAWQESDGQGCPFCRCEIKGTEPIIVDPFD

SMILES	IC50 [1] [µM]	IC50 [2] [µM]
Cn1cnnc1CC1(c2cccc(N3Cc4c(cc(CN5CC[C@@H](F)[C@@H](F)C5)cc4C(F)(F)F)C3=O)c2)COC1 (relative stereo) [Example 634, 6-((cis-3,4-difluoropiperidin-1-yl)methyl)-2-(3-(3-((4-methyl-4H-1,2,4-triazol-3-yl)methyl)oxetan-3-yl)phenyl)-4-(trifluoromethyl)isoindolin-1-one]	≤ 0.1	< 0.1
Cn1cnnc1CC1(c2cccc(N3Cc4c(cc(CN5CC[C@@H]6OCC[C@@H]6C5)cc4C(F)(F)F)C3=O)c2)COC1 (relative stereo) [Example 708, rel-6-[(3aR,7aS)-hexahydro-2H-furo[3,2-c]pyridin-5-ylmethyl]-2-(3-{3-[(4-methyl-1,2,4-triazol-3-yl)methyl]oxetan-3-yl}phenyl)-4-(trifluoromethyl)-3H-isoindol-1-one]	≤ 0.1	< 0.1
Cn1cnnc1CC1(c2cccc(N3Cc4c(cc(CN5CC[C@@H]6NCCO[C@@H]6C5)cc4C(F)(F)F)C3=O)c2)COC1 (relative stereo) [Example 713, rel-6-[(4aR,8aS)-octahydropyrido[3,4-b][1,4]oxazin-6-ylmethyl]-2-(3-{3-[(4-methyl-1,2,4-triazol-3-yl)methyl]oxetan-3-yl}phenyl)-4-(trifluoromethyl)-3H-isoindol-1-one]	≤ 0.1	< 0.1
CN1CC[C@@H](O)[C@H](Cc2cc3c(c(C(F)(F)F)c2)CN(c2cccc(C4(Cc5nncn5C)COC4)c2)C3=O)C1 (single isomer, unassigned) [Compound 533]	≤ 0.1	< 0.1
CC(c1cc(C(=O)Nc2cccc(C3(Cc4nncn4C)COC3)c2)nc(C2CC2)n1)N1CCC2(CC2)C1 (stereo in doubt) [Example 592b, (S)-6-(1-(5-azaspiro[2.4]heptan-5-yl)ethyl)-2-cyclopropyl-N-(3-(3-((4-methyl-4H-1,2,4-triazol-3-yl)methyl)oxetan-3-yl)phenyl)pyrimidine-4-carboxamide]	≤ 0.1	< 0.1
C[C@H](Sc1nncn1C)c1cccc(NC(=O)c2cccc(N(C)C)c2)c1 [Compound 26, (S)-3-(Dimethylamino)-N-(3-(1-((4-methyl-4H-1,2,4-triazol-3-yl)thio)ethyl)phenyl)benzamide]	≤ 10	> 10
C[C@H](Sc1nncn1C)c1cccc(NC(=O)c2cccc(N)c2)c1 [Compound 58, (S)-3-amino-N-(3-(1-((4-methyl-4H-1,2,4-triazol-3-yl)thio)ethyl)phenyl)benzamide]	≤ 10	3 to 10
C[C@H](Sc1nncn1C)c1cccc(NC(=O)c2cc3ccccc3c(C(F)(F)F)n2)c1 [Compound 63, (S)-N-(3-(1-((4-methyl-4H-1,2,4-triazol-3-yl)thio)ethyl)phenyl)-1-(trifluoromethyl)isoquinoline-3-carboxamide]	≤ 10	3 to 10
CC(Sc1nncn1C)c1ccc(OC(F)(F)F)c(NC(=O)c2cccc(C(F)(F)F)n2)c1 (stereo not drawn) [Compound 94, N-(5-(1-((4-methyl-4H-1,2,4-triazol-3-yl)thio)ethyl)-2-(trifluoromethoxy)phenyl)-6-(trifluoromethyl)picolinamide]	≤ 10	1 to 3
C[C@H](Sc1nncn1C)c1ccnc(NC(=O)c2ccc(Cl)c(C(F)(F)F)n2)c1 [Compound 106, (S)-5-chloro-N-(4-(1-((4-methyl-4H-1,2,4-triazol-3-yl)thio)ethyl)pyridin-2-yl)-6-(trifluoromethyl)picolinamide]	≤ 10	1 to 3
C[C@H](Sc1nncn1C)c1ccnc(NC(=O)c2noc3ccccc23)c1 [Compound 115, (S)-N-(4-(1-((4-methyl-4H-1,2,4-triazol-3-yl)thio)ethyl)pyridin-2-yl)benzo[d]isoxazole-3-carboxamide]	≤ 10	3 to 10
C[C@H](Sc1nncn1C)c1ccnc(NC(=O)c2csc(C(F)(F)F)n2)c1 [Compound 118, N-[4-[(1S)-1-[(4-methyl-1,2,4-triazol-3-yl)sulfanyl]ethyl]-2-pyridyl]-2-(trifluoromethyl)thiazole-4-carboxamide]	≤ 10	1 to 3
C[C@H](Sc1nncn1C)c1ccnc(NC(=O)c2cc(Br)cc(C(F)(F)F)n2)c1 [Compound 119, 4-bromo-N-[4-[(1S)-1-[(4-methyl-1,2,4-triazol-3-yl)sulfanyl]ethyl]-2-pyridyl]-6-(trifluoromethyl)pyridine-2-carboxamide]	≤ 1	0.301 to 1
CC(Sc1nncn1C)c1cncc(NC(=O)c2cccc(C(F)(F)F)n2)c1 (stereo not drawn) [Compound 127, N-[5-[1-[(4-methyl-1,2,4-triazol-3-yl)sulfanyl]ethyl]-3-pyridyl]-6-(trifluoromethyl)pyridine-2-carboxamide]	≤ 10	3 to 10
Cc1c[nH]nc1S[C@@H](C)c1ccnc(NC(=O)c2ccc3ccccc3n2)c1 [Compound 128a, (S)-N-(4-(1-((4-methyl-1H-pyrazol-3-yl)thio)ethyl)pyridin-2-yl)quinoline-2-carboxamide]	≤ 10	1 to 3
Cc1cn(C)c(SC(C)c2ccnc(NC(=O)c3ccc4ccccc4n3)c2)n1 (stereo not drawn) [Compound 129, N-(4-(1-((1,4-dimethyl-1H-imidazol-2-yl)thio)ethyl)pyridin-2-yl)quinoline-2-carboxamide]	≤ 10	> 10
CC(Sc1nncn1C)c1cc(NC(=O)c2ccc3ccccc3n2)c2c(c1)C(C)(O)CC2 (stereo not drawn) [Compound 131, N-(1-hydroxy-1-methyl-6-(1-(4-methyl-4H-1,2,4-triazol-3-ylthio)ethyl)-2,3-dihydro-1H-inden-4-yl)quinoline-2-carboxamide]	≤ 10	3 to 10
C[C@H](Cc1nncs1)c1cccc(N2Cc3c(cccc3C(F)(F)F)C2=O)c1 [Compound 368, (R)-2-(3-(1-(1,3,4-thiadiazol-2-yl)propan-2-yl)phenyl)-4-(trifluoromethyl)isoindolin-1-one]		0.301 to 1
C[C@H](Cc1nncn1C)c1cccc(N2Cc3c(ccnc3C(C)(C)F)C2=O)c1 [Compound 373, 4-(2-fluoropropan-2-yl)-2-[3-[(2R)-1-(4-methyl-4H-1,2,4-triazol-3-yl)propan-2-yl]phenyl]-1H,2H,3H-pyrrolo[3,4-c]pyridin-1-one]		0.301 to 1
Cn1cnnc1C[C@@H](c1cccc(N2Cc3c(cccc3C(F)(F)F)C2=O)c1)C(F)(F)F [Compound 471b, (S)-2-(3-(1,1,1-trifluoro-3-(4-methyl-4H-1,2,4-triazol-3-yl)propan-2-yl)phenyl)-4-(trifluoromethyl)isoindolin-1-one]		3 to 10
Cn1cnnc1[C@@H](F)[C@@](C)(F)c1cccc(N2Cc3c(cc(C4CC4)cc3C(F)(F)F)C2=O)c1 [Compound 481b, 6-cyclopropyl-2-[3-[(1R,2S)-1,2-difluoro-1-(4-methyl-4H-1,2,4-triazol-3-yl)propan-2-yl]phenyl]-4-(trifluoromethyl)-2,3-dihydro-1H-isoindol-1-one]		1 to 3
CCn1cnnc1CC1(c2cccc(NC(=O)c3cc(C)nc(C4CC4)n3)c2)COC1 [Example 705, 2-cyclopropyl-N-(3-{3-[(4-ethyl-1,2,4-triazol-3-yl)methyl]oxetan-3-yl}phenyl)-6-methylpyrimidine-4-carboxamide]		3 to 10
